Earlier results on five substances are cited in patent US9211305B2, “Pharmaceutical compositions with glycosaminoglycans and use thereof in the treatment of chronic ulcers” (LABORATORIOS FARMACEUTICOS ROVI S.A., priority 2008, dated 2015).

The conditions of series [1]: Ph. Eur. 6th Edition; cited from earlier work.
For series [2] the following is noted: in vivo; cited from earlier work.
For the next series, the system named is factor Xa. To be noted: commercial products; cited from earlier work.

In the case of Heparin Sodium, the Anti-coagulating activity in series [1] is on record as no less than 150 IU/mg.
Take Tinzaparin: in series [2], the “Plasma Half-Life” value is 3.0 h and the “Plasma Half-Life Range” value was 3.0 h. Moreover, the “anti-factor Xa activity” value in the series on factor Xa is 70-120 IU/mg.
For Enoxaparin, in series [2], the “Plasma Half-Life” value was 4.2 h and the “Plasma Half-Life Range” value was 4.0 to 4.4 h. Also, in the series with factor Xa, the “anti-factor Xa activity” value was 90-125 IU/mg.
Dalteparin: in series [2], the “Plasma Half-Life” value is 2.5 h and the “Plasma Half-Life Range” value was 2.3 to 2.8 h. For the same substance, the “anti-factor Xa activity” value in the series on factor Xa is listed as 110-210 IU/mg.
Regarding Nadroparin, in series [2], the “Plasma Half-Life” value was 3.7 h and the “Plasma Half-Life Range” value was 3.7 h.
